From paper PMC12406192, “Sustainable Joullié–Ugi and Continuous Flow Implementation Led to Novel Captopril-Inspired Broad-Spectrum Metallo-β-Lactamase Inhibitors” (Journal of Medicinal Chemistry, 2025)
Values after ≈ are worked out from the molar mass of the structure shown. Marks after values point to notes of the source that are not given here.

Tests used:
[1] = Chemical stability of the compounds; assay type: physicochemical
NDM-1 [2] = target: T1, NDM-1 (Klebsiella pneumoniae, UniProt C7C422); assay: Kinetic fluorescence-based in vitro assay with fluorocillin substrate (IC50); assay type: biochemical; conditions: 30 min preincubation
T1 construct: made in house; host or cells: E. coli
Procedure: (§1) IC50 values were determined in a kinetic fluorescence-based in vitro assay as described previously. All compounds were preincubated with the recombinant protein for 30 min before addition of the fluorogenic substrate fluorocillin. , The inhibitory activity was also determined (expressed as the percentage of inhibition in the presence of 50 μM compound) using a spectrophotometric assay in which the hydrolysis of imipenem (the reporter substrate) was monitored (see Section for details).
(§2) The inhibitory activity of the compounds was determined using enzyme assays with recombinant NDM-1, VIM-1, VIM-2, IMP-1, and IMP-7. These enzymes were produced in E. coli and purified as previously described. , The fluorogenic substrate fluorocillin was synthesized according to the procedure described by Rukavishnikov et al. The assays were performed in 96-well format using black polystyrene plates (Corning, Corning, NY) at room temperature, and the measurements were carried out on the Tecan spectrophotometer Infinite F200 PRO (Tecan, Männedorf, Switzerland). The protein stock solutions were diluted in assay buffer (HEPES 50 mM, pH 7.5 containing 0.01%Triton X-100, buffer HX) to reach final concentrations of VIM-1–4 nM, IMP-7–0.1 nM; NDM-1–3 nM. Subsequently, 89 μL of the protein solution was mixed with 1 μL of the inhibitor diluted in DMSO (final DMSO concentration 1% at final assay volume of 100 μL) and incubated for 30 min. […] Negative controls were measured in the absence of enzyme (89 μL of assay buffer), whereas the positive controls were measured in the presence of enzyme and in the absence of inhibitors (1 μL of DMSO). Each measurement was performed in triplicate in three independent experiments. IC50 values were calculated using data obtained from measurements with at least eight different inhibitor concentrations, applying a sigmoidal dose–response (variable slope with four parameters) equation using GraphPad Prism 5 (GraphPad Software, La Jolla, CA) software. […] All assays were performed in at least in triplicate.

[3] = system: P. aeruginosa T2325 (bla IMP‑1 +); assay: Imipenem MIC, broth microdilution, with fixed concentration of compound; assay type: cell-based; conditions: for imipenem MIC, P. aeruginosa T2325 (bla IMP‑1 +): compound at 128 μg/mL, median of three experiments
Procedure: (§3) In vitro antimicrobial susceptibility testing was performed according to established standards. […] The strains used in the study were described elsewhere.

[4] = system: K. pneumoniae T2216 (bla VIM‑1 +); assay: as above; assay type: cell-based; conditions: for imipenem MIC, K. pneumoniae T2216 (bla VIM‑1 +): compound at 128 μg/mL, median of three experiments
Procedure: as §3

[5] = system: K. pneumoniae T2301 (bla NDM‑1 +); assay: as above; assay type: cell-based; conditions: for imipenem MIC, K. pneumoniae T2301 (bla NDM‑1 +): compound at 128 μg/mL, median of three experiments
Procedure: (§4) In vitro antimicrobial susceptibility testing was performed according to established standards. […]. The strains used in the study were described elsewhere.

IMP-7 = IMP-7 (Pseudomonas aeruginosa, UniProt Q93AU3); assay: Kinetic fluorescence-based in vitro assay with fluorocillin substrate (IC50); assay type: biochemical; conditions: 30 min preincubation
Procedure: as §1, §2

VIM-1 = target: T2, VIM-1 (Pseudomonas aeruginosa, UniProt A0A0F7KYQ8); assay: as above; assay type: biochemical
T2 construct: made in house; host or cells: E. coli
Procedure: as §1, §2

[6] = system: E. coli SI–N003 (bla NDM‑7 +); assay type: cell-based; conditions: compound at 32 μg/mL; median of three experiments
Procedure: as §3

[7] = system: E. coli SI-G001 (bla NDM‑4 +); assay type: cell-based; conditions: compound at 32 μg/mL; median of three experiments
Procedure: as §3

NDM-1 [8] = target: T1, NDM-1; assay: Spectrophotometric direct competition assay, imipenem hydrolysis (reporter substrate); assay type: biochemical; conditions: for inhibition at 50 µM: read-out: percentage of inhibition NDM-1
Procedure: as §1, §2

[9] = system: K. pneumoniae 7023 (bla VIM‑1 +); assay: Imipenem MIC, broth microdilution, with fixed concentration of compound; assay type: cell-based; conditions: for imipenem MIC, K. pneumoniae 7023 (bla VIM‑1 +): compound at 32 μg/mL, median of three experiments
Procedure: as §3

[10] = system: K. pneumoniae VA-416/02 (bla VIM‑4 +); assay: as above; assay type: cell-based; conditions: for imipenem MIC, K. pneumoniae VA-416/02 (bla VIM‑4 +): compound at 32 μg/mL, median of three experiments
Procedure: as §3

[11] = system: A. baumannii AC-54/97 (bla IMP‑2 +); assay: as above; assay type: cell-based; conditions: for imipenem MIC, A. baumannii AC-54/97 (bla IMP‑2 +): compound at 32 μg/mL, median of three experiments
Procedure: as §3

[12] = system: E. coli SI-M001 (bla NDM‑1 +); assay: as above; assay type: cell-based; conditions: for imipenem MIC, E. coli SI-M001 (bla NDM‑1 +): compound at 32 μg/mL, median of three experiments
Procedure: as §4

[13] = target: T3, human angiotensin-converting enzyme 1 (ACE-1) (Homo sapiens, UniProt P12821); assay: ACE Activity Assay Kit, fluorogenic substrate; assay type: biochemical; conditions: 50 μM inhibitor
T3 construct: purchased Sigma-Aldrich CS0002
Procedure: To assess the selectivity of the compounds, their inhibitory activity on human angiotensin-converting enzyme 1 (ACE-1) was performed using the ACE Activity Assay Kit (Sigma-Aldrich cat. No. CS0002). […] Captopril (racemic mixture, D- and L-stereoisomers) was used as control in these experiments.

[14] = system: S. marcescens SI-1591 (bla VIM‑2 +); assay: microbe, parasite or virus in culture; assay type: cell-based; conditions: for imipenem MIC, S. marcescens SI-1591 (bla VIM‑2 +): compound at 32 μg/mL, median of three experiments
Procedure: as §3

VIM-2 [15] = target: T4, VIM-2 (Escherichia coli, UniProt Q5U7L7); assay: biochemical; conditions: competitive model, imipenem reporter substrate; read-out: K i VIM-2
T4 construct: made in house; host or cells: E. coli

IMP-1 = target: T5, IMP-1 (Serratia marcescens, UniProt P52699); assay: biochemical; conditions: for inhibition at 50 µM: read-out: percentage of inhibition IMP-1
T5 construct: made in house; host or cells: E. coli
Procedure: as §1, §2

VIM-2 [16] = target: T4, VIM-2; assay: biochemical; conditions: read-out: percentage of inhibition VIM-2
Procedure: as §1, §2

T5 sequence (P52699 19-246, looked up, species assumed): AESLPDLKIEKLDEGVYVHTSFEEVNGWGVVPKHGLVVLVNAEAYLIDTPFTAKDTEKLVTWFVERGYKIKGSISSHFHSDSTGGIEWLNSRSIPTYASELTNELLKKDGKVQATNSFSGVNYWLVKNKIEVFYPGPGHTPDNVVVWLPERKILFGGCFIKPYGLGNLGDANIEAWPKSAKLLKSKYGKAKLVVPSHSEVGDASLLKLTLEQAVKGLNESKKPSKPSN
T1 sequence (C7C422 29-270 limits assumed): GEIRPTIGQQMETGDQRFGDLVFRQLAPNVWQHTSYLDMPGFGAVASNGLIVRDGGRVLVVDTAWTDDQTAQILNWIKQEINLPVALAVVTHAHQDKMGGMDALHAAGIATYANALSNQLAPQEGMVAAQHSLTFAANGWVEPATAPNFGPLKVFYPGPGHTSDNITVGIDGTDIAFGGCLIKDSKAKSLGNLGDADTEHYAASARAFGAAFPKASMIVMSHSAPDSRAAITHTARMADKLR
IMP-7, sequence (Q93AU3 entry or part of it): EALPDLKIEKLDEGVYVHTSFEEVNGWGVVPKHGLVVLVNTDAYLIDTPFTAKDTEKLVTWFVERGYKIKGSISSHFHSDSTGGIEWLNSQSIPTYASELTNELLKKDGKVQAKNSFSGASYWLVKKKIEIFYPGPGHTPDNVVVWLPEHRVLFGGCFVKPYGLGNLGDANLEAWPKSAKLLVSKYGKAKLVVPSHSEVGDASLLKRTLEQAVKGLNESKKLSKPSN
T3 sequence (P12821 30-1306): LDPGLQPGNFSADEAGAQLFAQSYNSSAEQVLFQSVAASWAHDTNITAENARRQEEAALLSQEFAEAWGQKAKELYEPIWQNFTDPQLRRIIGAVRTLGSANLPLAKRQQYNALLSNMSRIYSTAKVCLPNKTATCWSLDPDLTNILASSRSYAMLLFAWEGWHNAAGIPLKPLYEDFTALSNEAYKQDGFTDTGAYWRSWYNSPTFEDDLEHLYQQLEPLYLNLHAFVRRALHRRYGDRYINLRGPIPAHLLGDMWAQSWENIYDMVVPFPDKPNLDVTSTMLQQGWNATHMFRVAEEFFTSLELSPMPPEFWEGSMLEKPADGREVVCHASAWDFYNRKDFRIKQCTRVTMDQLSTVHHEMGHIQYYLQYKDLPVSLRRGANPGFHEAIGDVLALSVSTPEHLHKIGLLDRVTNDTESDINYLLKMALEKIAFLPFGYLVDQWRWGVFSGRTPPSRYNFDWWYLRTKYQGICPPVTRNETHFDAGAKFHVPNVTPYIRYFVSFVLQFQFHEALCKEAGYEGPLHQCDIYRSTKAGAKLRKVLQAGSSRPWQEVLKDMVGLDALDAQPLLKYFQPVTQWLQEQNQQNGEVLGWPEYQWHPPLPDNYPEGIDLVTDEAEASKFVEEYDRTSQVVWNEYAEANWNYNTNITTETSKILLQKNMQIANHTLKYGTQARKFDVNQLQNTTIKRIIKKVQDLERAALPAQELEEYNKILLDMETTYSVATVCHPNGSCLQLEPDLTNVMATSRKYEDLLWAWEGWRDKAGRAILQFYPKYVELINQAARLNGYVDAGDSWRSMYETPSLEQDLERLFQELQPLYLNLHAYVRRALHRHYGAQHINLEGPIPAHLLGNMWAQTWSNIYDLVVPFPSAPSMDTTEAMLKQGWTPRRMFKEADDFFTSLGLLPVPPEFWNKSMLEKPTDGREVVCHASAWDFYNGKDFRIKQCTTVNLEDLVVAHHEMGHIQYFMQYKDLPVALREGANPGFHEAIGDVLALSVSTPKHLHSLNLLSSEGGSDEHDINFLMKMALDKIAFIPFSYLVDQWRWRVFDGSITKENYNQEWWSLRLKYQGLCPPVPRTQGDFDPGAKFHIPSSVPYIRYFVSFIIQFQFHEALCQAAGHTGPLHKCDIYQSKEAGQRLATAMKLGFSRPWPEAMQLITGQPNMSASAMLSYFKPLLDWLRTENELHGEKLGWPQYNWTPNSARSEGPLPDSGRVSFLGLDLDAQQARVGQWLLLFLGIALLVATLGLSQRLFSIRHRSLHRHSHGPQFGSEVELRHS

Row | Compound | IC50 (NDM-1 [2]) [µM] | imipenem MIC, E. coli SI–N003 (bla NDM‑7 +) [6] [µg/mL] | imipenem MIC, E. coli SI-G001 (bla NDM‑4 +) [7] [µg/mL] | inhibition at 50 µM (NDM-1 [8]) [%] | imipenem MIC, K. pneumoniae 7023 (bla VIM‑1 +) [9] [µg/mL] | imipenem MIC, K. pneumoniae VA-416/02 (bla VIM‑4 +) [10] [µg/mL] | imipenem MIC, A. baumannii AC-54/97 (bla IMP‑2 +) [11] [µg/mL] | imipenem MIC, E. coli SI-M001 (bla NDM‑1 +) [12] [µg/mL] | imipenem MIC, S. marcescens SI-1591 (bla VIM‑2 +) [14] [µg/mL] | inhibition at 50 µM (IMP-1) [%] | inhibition at 50 µM (VIM-2 [16]) [%] | other results
1 | C[C@H](CS)C(=O)N1c2ccccc2C(C)(C)[C@H]1C(N)=O [6a, (S)-1-((S)-3-Mercapto-2-methylpropanoyl)-3,3-dimethylindoline-2-carboxamide] | 17.9 |  |  |  |  |  |  |  |  |  |  | chemical stability (in words) [1]: not very stable
2 | C[C@H](CS)C(=O)N1c2ccccc2C(C)(C)[C@@H]1C(N)=O [6b, (R)-1-((S)-3-Mercapto-2-methylpropanoyl)-3,3-dimethylindoline-2-carboxamide] | 4.1 |  |  |  |  |  |  |  |  |  |  | chemical stability (in words) [1]: lower chemical stability; imipenem MIC, P. aeruginosa T2325 (bla IMP‑1 +) [3]: 64 ^c μg/mL; imipenem MIC, K. pneumoniae T2216 (bla VIM‑1 +) [4]: 4 ^c μg/mL; imipenem MIC, K. pneumoniae T2301 (bla NDM‑1 +) [5]: 16 ^c μg/mL; IC50 (IMP-7): 1.8 µM; IC50 (VIM-1): 0.7 µM
3 | CCC1(CC)c2ccccc2N(C(=O)[C@H](C)CS)[C@@H]1C(N)=O [6c, (S)-3,3-Diethyl-1-((S)-3-mercapto-2-methylpropanoyl)indoline-2-carboxamide] | 8.4 | 64 | 64 | 81 | 128 | 128 | 128 | 64 | 8 | 66 | 96 | Ki (NDM-1 [8]; competitive model, imipenem reporter substrate, read-out: K i NDM-1): 4.5 ± 0.7 µM; inhibition at 50 µM [13]: < 5%; Ki (VIM-2 [15]): 0.16 ± 0.01 µM; Ki (IMP-1; competitive model, imipenem reporter substrate, read-out: K i IMP-1): 4.9 ± 0.3 µM
4 | C[C@H](CS)C(=O)N1c2ccccc2C(C)(C)[C@H]1C(=O)NCC(=O)O [7a, ((S)-1-((S)-3-Mercapto-2-methylpropanoyl)-3,3-dimethylindoline-2-carbonyl)glycine] | 40 | 64 | 64 | 28 | 128 | 128 | 128 | 64 | 8 | ≤ 10 | 38 | 
5 | C[C@H](CS)C(=O)N1c2ccccc2C(C)(C)[C@@H]1C(=O)NCC(=O)O [7b, ((R)-1-((S)-3-Mercapto-2-methylpropanoyl)-3,3-dimethylindoline-2-carbonyl)glycine] | 8 | 64 | 64 | 74 | 128 | 128 | 128 | 64 | 16 | 13 | 58 | imipenem MIC, P. aeruginosa T2325 (bla IMP‑1 +) [3]: 32 ^c μg/mL; imipenem MIC, K. pneumoniae T2216 (bla VIM‑1 +) [4]: 4 ^c μg/mL; imipenem MIC, K. pneumoniae T2301 (bla NDM‑1 +) [5]: 8 ^c μg/mL; IC50 (IMP-7): 8.6 µM; IC50 (VIM-1): 7.4 µM
6 | CCC1(CC)c2ccccc2N(C(=O)[C@H](C)CS)[C@@H]1C(=O)NCC(=O)O [7c, ((S)-3,3-Diethyl-1-((S)-3-mercapto-2-methylpropanoyl)indoline-2-carbonyl)glycine] | 41 | 64 | 64 | 43 | 128 | 128 | 128 | 64 | 16 | 27 | 55 | 
7 | CCC1(CC)c2ccccc2N(C(=O)[C@H](C)CS)[C@H]1C(=O)NCC(=O)O [7d, ((R)-3,3-Diethyl-1-((S)-3-mercapto-2-methylpropanoyl)indoline-2-carbonyl)glycine] | 10 | 64 | 64 | 67 | 128 | 128 | 128 | 64 | 16 | 17 | 69 | 
8 | CCC1(CC)c2ccccc2N(C(=O)[C@H](C)CSC(C)=O)[C@H]1C(N)=O [(S,R′)-14b, ((S)-3-((R)-2-Carbamoyl-3,3-diethylindolin-1-yl)-2-methyl-3-oxopropyl)ethanethioate] |  | 64 | 64 | ≤ 10 | 64 | 128 | 128 | 32 | 8 | ≤ 10 | 15 | 
9 | CC(=O)SC[C@@H](C)C(=O)N1c2ccccc2C2(CCCCC2)[C@H]1C(N)=O [(S,S′)-14c, ((S)-3-((S)-2′-Carbamoylspiro[cyclohexane-1,3′-indolin]-1′-yl)-2-methyl-3-oxopropyl)ethanethioate] |  | 32 | 32 | ≤ 10 | 64 | 128 | 128 | 16 | 8 | ≤ 10 | 17 | 
10 | C[C@H](CS)C(=O)N1CCC[C@@H]1C(=O)O [D-captopril, reference compound] |  |  |  | 86 |  |  |  |  |  |  |  | 
11 | C[C@H](CS)C(=O)N1CCC[C@H]1C(=O)O [L-captopril, reference compound] |  |  |  | 76 |  |  |  |  |  |  |  | 
12 | C[C@@H](O)[C@H]1C(=O)N2C(C(=O)O)=C(SCCN=CN)C[C@H]12 [imipenem, reference compound] |  |  |  |  |  |  |  |  |  |  |  | MIC ([9]; Klebsiella pneumoniae, read-out: imipenem MIC, K. pneumoniae 7023 (bla VIM‑1 +)): 128 µg/mL (≈ 428 µM); MIC ([3]; Pseudomonas aeruginosa, read-out: imipenem MIC, P. aeruginosa T2325 (bla IMP‑1 +)): 64 µg/mL (≈ 214 µM); MIC ([4]; Klebsiella pneumoniae, read-out: imipenem MIC, K. pneumoniae T2216 (bla VIM‑1 +)): 4 µg/mL (≈ 13.4 µM); MIC ([10]; Klebsiella pneumoniae, read-out: imipenem MIC, K. pneumoniae VA-416/02 (bla VIM‑4 +)): 128 µg/mL (≈ 428 µM); MIC ([11]; Acinetobacter baumannii, read-out: imipenem MIC, A. baumannii AC-54/97 (bla IMP‑2 +)): 128 µg/mL (≈ 428 µM); MIC ([12]; Escherichia coli, imipenem alone (compound: None)): 64 µg/mL (≈ 214 µM); MIC ([5]; Klebsiella pneumoniae, imipenem alone (compound: None)): 16 µg/mL (≈ 53.4 µM); MIC ([14]; Serratia marcescens, read-out: imipenem MIC, S. marcescens SI-1591 (bla VIM‑2 +)): 16 µg/mL (≈ 53.4 µM)
